# Tests used:
# Experiment in all cases: relative viability (nuclei count vs DMSO), 5 days (fraction); higher = more cells survive
# Entinostat + Dasatinib = compound: Nc1ccccc1NC(=O)c1ccc(CNC(=O)OCc2cccnc2)cc1 [Entinostat] + Cc1nc(Nc2ncc(C(=O)Nc3c(C)cccc3Cl)s2)cc(N2CCN(CCO)CC2)n1 [Dasatinib] (partner 0.075 µM)
# Procedure, shortened: (§1)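 Lung cancer cell lines in 1536-well plates got either a single drug or a fixed anchor-drug dose together with five library-drug doses (not always all listed) in √10 steps, by pin tool, on the day after seeding. Nuclei were counted after 5 days, and relative viability is the treated-to-vehicle ratio of nuclei counts. Values are medians of duplicate plates.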
# [1] = compound: C1COCCN1C2=NC(=NC3=C2OC4=C3C=CC=N4)C5=CC(=CC=C5)NC(=O)C6=CN=C(C=C6)N + CS(=O)(=O)CCNCc1ccc(-c2ccc3ncnc(Nc4ccc(OCc5cccc(F)c5)c(Cl)c4)c3c2)o1 [Lapatinib] (partner 2 µM)
# Procedure, shortened: as §1
# [2] = compound: C1COCCN1C2=NC(=NC3=C2OC4=C3C=CC=N4)C5=CC(=CC=C5)NC(=O)C6=CN=C(C=C6)N + CC1(C)CCC(c2ccc(Cl)cc2)=C(CN2CCN(c3ccc(C(=O)NS(=O)(=O)c4ccc(N[C@H](CCN5CCOCC5)CSc5ccccc5)c(S(=O)(=O)C(F)(F)F)c4)cc3)CC2)C1 [Navitoclax] (partner 0.5 µM)
# Procedure, shortened: as §1
# SGI-1776 + Vorinostat = compound: CN1CCC(CNc2ccc3ncc(-c4cccc(OC(F)(F)F)c4)n3n2)CC1 [SGI-1776] + O=C(CCCCCCC(=O)Nc1ccccc1)NO [Vorinostat] (partner 1 µM)
# Procedure, shortened: as §1
Cell Line,relative viability (Entinostat + Dasatinib; first compound 0.02 µM),relative viability (Entinostat + Dasatinib; first compound 0.06325 µM),relative viability (Entinostat + Dasatinib; first compound 0.2 µM),relative viability (Entinostat + Dasatinib; first compound 0.6325 µM),relative viability (Entinostat + Dasatinib; first compound 2 µM),relative viability ([1]; first compound 0.02 µM),relative viability ([1]; first compound 0.06325 µM),relative viability ([1]; first compound 0.2 µM),relative viability ([1]; first compound 0.6325 µM),relative viability ([1]; first compound 2 µM),relative viability ([2]; first compound 0.02 µM),relative viability ([2]; first compound 0.06325 µM),relative viability ([2]; first compound 0.2 µM),relative viability ([2]; first compound 0.6325 µM),relative viability ([2]; first compound 2 µM),relative viability (SGI-1776 + Vorinostat; first compound 0.08 µM),relative viability (SGI-1776 + Vorinostat; first compound 0.8 µM),relative viability (SGI-1776 + Vorinostat; first compound 2.53 µM),relative viability (SGI-1776 + Vorinostat; first compound 8 µM)
NCI-H1755,0.431,0.503,0.445,0.28,0.218,1.09,1.12,1.05,1.02,0.653,0.987,1.13,1.05,0.861,0.561,0.809,0.87,0.733,0.6
NCI-H1793,0.422,0.404,0.376,0.228,0.192,0.884,0.971,0.575,0.56,0.405,0.398,0.523,0.416,0.655,0.375,0.843,1.15,0.768,0.638
NCI-H1915,0.336,0.27,0.238,0.173,0.151,0.955,1.04,1.03,1.01,0.443,0.757,0.838,0.824,0.836,0.873,0.51,0.555,0.492,0.449
NCI-H1944,0.226,0.205,0.199,0.17,0.175,0.802,0.864,0.753,0.876,0.859,1.03,1.04,0.957,0.841,0.858,0.584,0.646,0.553,0.477
NCI-H1975,0.352,0.307,0.316,0.199,0.134,0.836,0.841,0.817,0.874,0.395,1.31,1.17,1.05,1.13,0.422,0.745,0.725,0.683,0.589
NCI-H1993,0.747,0.591,0.535,0.496,0.259,0.787,0.822,0.841,0.826,0.814,0.819,1.06,0.822,0.874,0.763,1.13,0.626,0.523,0.457
NCI-H2009,0.329,0.331,0.376,0.346,0.241,0.933,0.944,0.889,0.89,0.792,1.19,1.2,1.12,1.05,0.954,0.756,0.761,0.671,0.588
NCI-H2023,0.55,0.439,0.326,0.135,0.0809,0.759,0.798,0.618,0.565,0.471,1.05,1.03,0.967,0.904,0.444,0.795,0.8,0.713,0.463
NCI-H2085,0.226,0.243,0.228,0.248,0.244,0.77,0.771,0.744,0.726,0.65,1.15,1.12,1.05,1.1,0.602,0.841,0.865,0.763,0.753
NCI-H2087,1,0.837,0.711,0.373,0.204,1.11,1.09,1.07,0.997,0.807,1.02,1.03,0.925,0.918,0.608,0.927,0.783,0.443,0.773
NCI-H2126,0.615,0.545,0.443,0.349,0.268,0.729,0.754,0.722,0.776,0.67,0.872,0.828,0.9,0.839,0.763,0.709,0.801,0.77,0.698
NCI-H2170,0.532,0.636,0.69,0.558,0.365,0.245,0.265,0.251,0.286,0.297,0.674,0.605,0.673,0.525,0.413,0.83,0.825,0.853,0.76
NCI-H2228,0.446,0.358,0.3,0.208,0.126,1.1,1.2,0.89,1.06,0.604,0.959,1.31,0.783,1.3,0.348,0.613,0.884,0.679,0.429
NCI-H2347,0.325,0.328,0.196,0.193,0.205,0.993,0.787,0.929,0.944,0.933,0.854,0.895,0.815,0.747,0.528,0.598,0.622,0.588,0.496
NCI-H2405,0.239,0.208,0.217,0.182,0.129,0.983,1.05,1.04,1.02,0.902,0.819,0.927,0.904,0.931,0.721,1.06,1.16,0.896,0.748
NCI-H3122,1.03,0.98,0.812,0.629,0.0849,0.958,1.08,1.04,1.07,0.88,0.975,1.05,1.03,1.02,0.798,1.15,0.917,1.07,1.07
PC-3 [JPC-3],1.07,0.87,0.95,0.666,0.405,0.444,0.459,0.438,0.476,0.398,0.823,0.847,0.848,0.741,0.615,0.853,1.04,0.756,0.421
